From US10618918B2, “Substituted boronic acids as antimicrobials” (priority 2015, dated 2020)
Where two headings read alike, the source gives them in different places.

How the values were obtained:
KP1004 KPC-2 [1] = assay: Aztreonam potentiation (MPC@4), strain KP1004 KPC-2; conditions: minimum BLI concentration inhibiting growth with aztreonam 4 μg/mL; tested up to 40 μg/mL
ECL1002 = assay: Aztreonam potentiation (MPC@4), strain ECL1002; conditions: minimum BLI concentration inhibiting growth with aztreonam 4 μg/mL; tested up to 40 μg/mL
KP1010 SHV-12 = assay: Aztreonam potentiation (MPC@4), strain KP1010 SHV-12; conditions: minimum BLI concentration inhibiting growth with aztreonam 4 μg/mL; tested up to 40 μg/mL
KP1005 CTX-M-14 = assay: Tigemonam potentiation (MPC@4), strain KP1005 CTX-M-14; conditions: minimum BLI concentration inhibiting growth with tigemonam 4 μg/mL; tested up to 40 μg/mL
EC1010 CMY-6 = assay: Aztreonam potentiation (MPC@4), strain EC1010 CMY-6; conditions: minimum BLI concentration inhibiting growth with aztreonam 4 μg/mL; tested up to 40 μg/mL
KP1009 CTX-M-15 = assay: Aztreonam potentiation (MPC@4), strain KP1009 CTX-M-15; conditions: minimum BLI concentration inhibiting growth with aztreonam 4 μg/mL; tested up to 40 μg/mL
AB1054 OXA-23 = assay: Meropenem potentiation (MPC@8), strain AB1054 OXA-23; type: cell-based, Acinetobacter baumannii; conditions: minimum BLI concentration inhibiting growth with meropenem 8 μg/mL; tested up to 20 μg/mL
KP1004 KPC-2 [2] = assay: Biapenem potentiation (MPC@1), strain KP1004 KPC-2; type: cell-based; conditions: minimum BLI concentration inhibiting growth with biapenem 1 μg/mL; tested up to 40 μg/mL
Description: (§1) Biapenem was present in the test medium at 1 μg/mL. […] Table 3 summarizes the BLI potency of biapenem potentiation (MPC@1) for two strains overexpressing class A (KPC) and class D (OXA-48) carbapenemases. Biapenem MIC for each strain is also shown.

KP1086 OXA-48 = assay: Biapenem potentiation (MPC@1), strain KP1086 OXA-48; type: cell-based; conditions: minimum BLI concentration inhibiting growth with biapenem 1 μg/mL; tested up to 40 μg/mL
Description: as §1

ec302 TEM-10 = assay: Aztreonam potentiation (MPC@4), strain ec302 TEM-10; conditions: minimum BLI concentration inhibiting growth with aztreonam 4 μg/mL; tested up to 40 μg/mL
[3] = target: T1, purified class A, C and D enzymes (β-lactamases) (Acinetobacter baumannii, UniProt Q9L4P2); assay: biochemical; type: biochemical; conditions: purified OXA-23; nitrocefin (NCF) as reporter substrate
T1 construct: rows headed: Ki (OXA-23, NCF), uM; other: purified OXA-23; nitrocefin (NCF) as reporter substrate
T1 sequence (Q9L4P2 whole entry): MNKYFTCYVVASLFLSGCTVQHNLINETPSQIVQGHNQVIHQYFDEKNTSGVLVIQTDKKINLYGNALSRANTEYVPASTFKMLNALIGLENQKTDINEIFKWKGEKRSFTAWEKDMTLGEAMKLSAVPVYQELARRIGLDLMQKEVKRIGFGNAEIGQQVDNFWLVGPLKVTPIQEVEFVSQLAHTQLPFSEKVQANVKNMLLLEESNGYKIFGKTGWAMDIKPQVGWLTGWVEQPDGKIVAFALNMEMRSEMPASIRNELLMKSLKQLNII

[4] = target: T2, purified class A, C and D enzymes (β-lactamases) (Pseudomonas aeruginosa, UniProt P24735); assay: biochemical; type: biochemical
T2 construct: rows headed: Ki (Pa-AmpC, NCF), uM; other: purified Pa-AmpC; nitrocefin (NCF) as reporter substrate
T2 sequence (P24735 whole entry): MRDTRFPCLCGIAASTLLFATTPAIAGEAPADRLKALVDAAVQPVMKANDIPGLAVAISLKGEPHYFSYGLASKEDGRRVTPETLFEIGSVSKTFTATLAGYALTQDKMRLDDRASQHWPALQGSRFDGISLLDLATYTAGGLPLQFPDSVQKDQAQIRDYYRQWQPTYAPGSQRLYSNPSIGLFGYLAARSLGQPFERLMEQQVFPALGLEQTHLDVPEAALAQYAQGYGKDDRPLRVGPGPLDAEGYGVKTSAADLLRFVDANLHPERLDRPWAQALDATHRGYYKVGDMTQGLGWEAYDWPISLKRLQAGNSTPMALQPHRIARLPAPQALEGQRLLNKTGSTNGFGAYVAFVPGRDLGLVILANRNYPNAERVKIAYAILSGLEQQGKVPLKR

[5] = target: purified class A, C and D enzymes (β-lactamases) (Enterobacter cloacae, UniProt P05364); assay: biochemical; type: biochemical
purified class A, C and D enzymes (β-lactamases) (Enterobacter cloacae, UniProt P05364), sequence (P05364 21-381): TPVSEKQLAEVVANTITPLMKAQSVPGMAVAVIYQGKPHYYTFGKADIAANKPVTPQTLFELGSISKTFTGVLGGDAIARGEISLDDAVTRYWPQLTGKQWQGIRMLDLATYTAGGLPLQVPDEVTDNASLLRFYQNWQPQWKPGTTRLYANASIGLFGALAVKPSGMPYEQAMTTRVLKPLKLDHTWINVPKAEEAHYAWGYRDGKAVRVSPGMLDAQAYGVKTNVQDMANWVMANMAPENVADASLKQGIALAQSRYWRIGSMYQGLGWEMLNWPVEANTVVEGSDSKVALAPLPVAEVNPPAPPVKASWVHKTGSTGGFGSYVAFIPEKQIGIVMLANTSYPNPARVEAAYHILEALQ

[6] = target: purified class A, C and D enzymes (β-lactamases) (Escherichia coli, UniProt Q9L5C7); assay: biochemical; type: biochemical; conditions: purified CTX-M-14; nitrocefin (NCF) as reporter substrate
purified class A, C and D enzymes (β-lactamases) (Escherichia coli, UniProt Q9L5C7), sequence (Q9L5C7 entry or part of it): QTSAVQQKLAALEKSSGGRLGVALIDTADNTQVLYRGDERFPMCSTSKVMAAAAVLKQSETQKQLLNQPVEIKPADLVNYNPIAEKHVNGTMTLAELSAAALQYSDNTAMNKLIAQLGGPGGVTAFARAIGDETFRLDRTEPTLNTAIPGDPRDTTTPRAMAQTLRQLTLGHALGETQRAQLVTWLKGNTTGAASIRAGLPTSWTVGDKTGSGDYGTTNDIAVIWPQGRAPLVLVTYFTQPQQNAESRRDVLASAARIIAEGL

[7] = target: purified class A, C and D enzymes (β-lactamases) (Klebsiella pneumoniae, UniProt Q9F663); assay: biochemical; type: biochemical; conditions: purified KPC-2; nitrocefin (NCF) as reporter substrate
[8] = target: purified class A, C and D enzymes (β-lactamases) (Klebsiella pneumoniae, UniProt Q6XEC0); assay: biochemical; type: biochemical; conditions: purified OXA-48; nitrocefin (NCF) as reporter substrate
AB1053 OXA-72 = assay: Meropenem potentiation (MPC@8), strain AB1053 OXA-72; type: cell-based, Acinetobacter baumannii; conditions: minimum BLI concentration inhibiting growth with meropenem 8 μg/mL; tested up to 20 μg/mL
ec308 SHV-5 = assay: Aztreonam potentiation (MPC@4), strain ec308 SHV-5; conditions: minimum BLI concentration inhibiting growth with aztreonam 4 μg/mL; tested up to 40 μg/mL
[9] = purified Pa-AmpC, nitrocefin (NCF) as reporter substrate, read-out: Ki (Pa-AmpC, NCF)
[10] = purified P99, nitrocefin (NCF) as reporter substrate

Row | Structure (SMILES) | AZT MPC4 KPC-2 KP1004 (KP1004 KPC-2 [1]) | AZT MPC4 ECL1002 (ECL1002) | AZT MPC4 SHV-12 KP1010 (KP1010 SHV-12) | TIG MPC4 CTX-M-14 KP1005 (KP1005 CTX-M-14) | AZT MPC4 CMY-6 EC1010 (EC1010 CMY-6) | AZT MPC4 CTX-M-15 KP1009 (KP1009 CTX-M-15) | MPM MPC8 AB1054 OXA-23 (AB1054 OXA-23) | BPM MPC1 KP1004 KPC-2 (KP1004 KPC-2 [2]) | BPM MPC1 OXA-48 KP1086 (KP1086 OXA-48) | AZT MPC4 TEM-10 ec302 (ec302 TEM-10) | Ki [3] [nM] | Ki [4, 9] [nM] | Ki (P99, NCF), uM [5, 10] | Ki (CTX-M-14, NCF), uM [6] | Ki (KPC-2, NCF), uM [7] | Ki (OXA-48, NCF), uM [8] | MPM MPC8 AB1053 OXA-72 (AB1053 OXA-72) | AZT MPC4 SHV-5 ec308 (ec308 SHV-5) | Ki [4] [nM] | Ki (P99, NCF), uM [5]
1 | O=C(O)c1c(CNc2nncs2)ccc2c1OB(O)CC2 [Compound 64, 2-Hydroxy-7-[(1,3,4-thiadiazol-2-ylamino)methyl]-3,4-dihydro-1,2-benzoxaborinine-8-carboxylic acid] | X (X = MPC@4 ≤ 5 μg/mL) | X (X = MPC@4 ≤ 5 μg/mL) | X (X = MPC@4 ≤ 5 μg/mL) | Y (Y = 5 μg/mL < MPC@4 ≤ 20 μg/mL) | X (X = MPC@4 ≤ 5 μg/mL) | X (X = MPC@4 ≤ 5 μg/mL) | Y (Y = 5 μg/mL < MPC@1 ≤ 20 μg/mL) | X (X = MPC@1 ≤ 5 μg/mL) | Y (Y = 5 μg/mL < MPC@1 ≤ 20 μg/mL) | X (X = MPC@4 ≤ 5 μg/mL) | < 100 | < 100 | X (X = Ki ≤ 0.1 μM) | X (X = Ki ≤ 0.1 μM) | X (X = Ki ≤ 0.1 μM) | X (X = Ki ≤ 0.1 μM) | Y (Y = 5 μg/mL < MPC@1 ≤ 20 μg/mL) | X (X = MPC@4 ≤ 5 μg/mL) | – | –
2 | O=C(O)c1c(F)ccc2c1OB(O)COC2 [Compound 58, 8-Fluoro-2-hydroxy-3,5-dihydro-1,4,2-benzodioxaborepine-9-carboxylic acid] | X (X = MPC@4 ≤ 5 μg/mL) | X (X = MPC@4 ≤ 5 μg/mL) | Y (Y = 5 μg/mL < MPC@4 ≤ 20 μg/mL) | Z (Z = MPC@4 > 20 μg/mL) | X (X = MPC@4 ≤ 5 μg/mL) | Z (Z = MPC@4 > 20 μg/mL) | Z (Z = MPC@1 > 20 μg/mL) | X (X = MPC@1 ≤ 5 μg/mL) | X (X = MPC@1 ≤ 5 μg/mL) | Z (Z = MPC@4 > 20 μg/mL) | 100 to 1000 | < 100 | X (X = Ki ≤ 0.1 μM) | X (X = Ki ≤ 0.1 μM) | X (X = Ki ≤ 0.1 μM) | X (X = Ki ≤ 0.1 μM) | Z (Z = MPC@1 > 20 μg/mL) | Z (Z = MPC@4 > 20 μg/mL) | – | –
3 | NS(=O)(=O)Nc1ccc2c(c1C(=O)[O-])O[B-](O)(O)CC2.[Na+].[Na+] [Compound 52, Disodium; 4,4-dihydroxy-8-(sulfamoylamino)-5-oxa-4-boranuidabicyclo[4.4.0]deca-1(6),7,9-triene-7-carboxylate] | X (X = MPC@4 ≤ 5 μg/mL) | X (X = MPC@4 ≤ 5 μg/mL) | X (X = MPC@4 ≤ 5 μg/mL) | Z (Z = MPC@4 > 20 μg/mL) | X (X = MPC@4 ≤ 5 μg/mL) | Y (Y = 5 μg/mL < MPC@4 ≤ 20 μg/mL) | Z (Z = MPC@1 > 20 μg/mL) | X (X = MPC@1 ≤ 5 μg/mL) | X (X = MPC@1 ≤ 5 μg/mL) | Y (Y = 5 μg/mL < MPC@4 ≤ 20 μg/mL) | 100 to 1000 | – | – | X (X = Ki ≤ 0.1 μM) | X (X = Ki ≤ 0.1 μM) | X (X = Ki ≤ 0.1 μM) | Z (Z = MPC@1 > 20 μg/mL) | Y (Y = 5 μg/mL < MPC@4 ≤ 20 μg/mL) | < 100 | X (key: X = Ki ≤ 0.1 μM; Y = 0.1 μM < Ki ≤ 1 μM; Z = Ki > 1 μM)
